Read-outs that look alike come from different tables or passages of the source.
Key:
human sEH = human sEH (Homo sapiens (Human), UniProt P34913); test: Inhibitory activity against human sEH; format: biochemical; conditions: read-out: Human sEH IC50
Raf-1 = Raf-1 (Homo sapiens (Human), UniProt P04049); test: In vitro kinase inhibition assay (ADP-Glo), Raf-1; format: biochemical
Experimental: (§1) All measurements included background and control (vehicle only) luminescence readings.
(§2) The kinases Raf-1 and b-Raf (V600E), and their corresponding substrate, MEK1, and Full length recombinant CRAF kinase and its respective substrate, recombinant MEK1, were purchased from US Biological (Swampscott, Mass.). All assays were performed under identical conditions for the Raf isozymes: 10 nM Enzyme, 1 μM MEK1, 10 μM ATP, at 22° C. for 2 hours. […] IC50 values were obtained by determining the change in the ADP production (luminescence signal) at various inhibitor concentrations as compared to the control assay. Individual data sets were performed in duplicate and each IC50 was determined by the average and standard deviation of three separate experiments.
as §2, with “Full” for “The kinases Raf-1 and b-Raf (V600E), and their corresponding substrate, MEK1, and Full”, “at” for “under identical conditions for the Raf isozymes:”, “CRAF,” for “Enzyme,”, “(luminescent” for “(luminescence”, “mean” for “average”

HepG2 hepatoma cell line = test: MTT cell viability assay, HepG2; format: cell-based; conditions: for EC50: Homo sapiens, read-out: EC50 on cell viability, HepG2 (Liver)
Experimental: (§3) Cell-based assays were performed using the described cell lines, grown in the appropriate Growth Mediums containing 10% fetal bovine serum and 1% penicillin-streptomycin. Cancer cells were plated at 15,000 cells/well in 96-well plates and allowed to attach overnight. […] Cell viability was determined after 72 hours incubation periods. To determine anti-proliferative effects of inhibitors, cellular proliferation was determined using the colorimetric MTT cell viability assay kit, as described by the manufacture (ATCC).

Huh-7 hepatoma cell line = test: MTT cell viability assay, Huh-7; format: cell-based; conditions: Homo sapiens, read-out: EC50 on cell viability, Huh-7 (Liver)
Experimental: as §3

[1] = tested on: ACHN renal cell carcinoma cell line; test: MTT cell viability assay, ACHN; format: cell-based; conditions: Homo sapiens, read-out: EC50 on cell viability, ACHN (Kidney)
Experimental: as §3

[2] = tested on: PC-3 prostate cancer cell line; test: MTT cell viability assay, PC-3; format: cell-based; conditions: read-out: EC50 on cell viability, PC-3 (Prostate)
Experimental: (§4) Cell-based assays were performed using the described cell lines, grown in the appropriate Growth Mediums containing 10% fetal bovine serum and 1% penicillin-streptomycin. Cancer cells were plated at 15,000 cells/well in 96-well plates and allowed to attach overnight. Inhibitors were dissolved in DMSO and then diluted to concentrations ranging from 0.1-25 μM with a final DMSO concentration of 0.1%. Cell viability was determined after 72 hours incubation periods. To determine anti-proliferative effects of inhibitors, cellular proliferation was determined using the colorimetric MTT cell viability assay kit, as described by the manufacture (ATCC).

[3] = tested on: T47D breast cancer cell line; test: MTT cell viability assay, T47D; format: cell-based; conditions: Homo sapiens, 72 hours incubation
Experimental: as §4

[4] = tested on: SKBR3 breast cancer cell line; test: MTT cell viability assay, SKBR3; format: cell-based; conditions: Homo sapiens, read-out: EC50 on cell viability, SKBR3 (Breast)
Experimental: as §4

b-Raf (V600E) = b-Raf (V600E) (Homo sapiens (Human), UniProt P15056, V600E); test: In vitro kinase inhibition assay (ADP-Glo), b-Raf (V600E); format: biochemical
Experimental: as §1, §2

[5] = Pharmacokinetics after cassette oral administration to mice; conditions: male, Swiss Webster, mouse, in vivo, 1 mg/kg
Experimental: Male Swiss Webster mice (10-week old, 30-35 g) were used for PK studies. […] Each blood sample was immediately transferred to a tube containing 50 μL of water containing 0.1% EDTA. After being mixed strongly on a Vortex for 1 min, all samples were stored at −80° C. until analysis. The extraction of sEHIs from blood was performed by a slight modification of a previous method. […] Torrance, Calif.) held at 50° C. […] The injection volume was 10 μL and the samples were kept at 4° C. in the auto sampler. Analytes were detected by negative mode electrospray ionizations tandem quadrupole trap mass spectrometry in multiple reaction-monitoring mode (MRM) on a Trap 4000 Mass Spectrometer (ABI, Milford, Mass.). The parameters of MS condition were the same as presented previously.

[6] = HepG2, MTT, 72 hours incubation
[7] = Huh-7, MTT, 72 hours incubation
[8] = SK-BR-3, MTT, 72 hours incubation

human sEH, sequence (P34913 whole entry): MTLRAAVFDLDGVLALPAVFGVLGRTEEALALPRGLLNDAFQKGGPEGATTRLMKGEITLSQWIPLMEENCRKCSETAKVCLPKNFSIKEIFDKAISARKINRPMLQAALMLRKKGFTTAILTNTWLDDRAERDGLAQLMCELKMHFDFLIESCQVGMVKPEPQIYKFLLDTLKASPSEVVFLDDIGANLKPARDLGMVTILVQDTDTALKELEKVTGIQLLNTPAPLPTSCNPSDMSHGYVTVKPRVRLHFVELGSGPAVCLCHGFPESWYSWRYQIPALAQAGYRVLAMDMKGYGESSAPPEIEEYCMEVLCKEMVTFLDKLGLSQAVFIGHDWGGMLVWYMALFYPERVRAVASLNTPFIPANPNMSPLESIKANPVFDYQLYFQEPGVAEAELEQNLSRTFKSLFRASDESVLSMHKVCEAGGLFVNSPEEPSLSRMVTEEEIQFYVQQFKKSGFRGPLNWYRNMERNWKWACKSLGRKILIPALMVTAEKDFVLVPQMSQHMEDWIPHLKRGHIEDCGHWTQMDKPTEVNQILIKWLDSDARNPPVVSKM
Raf-1, sequence (P04049 whole entry): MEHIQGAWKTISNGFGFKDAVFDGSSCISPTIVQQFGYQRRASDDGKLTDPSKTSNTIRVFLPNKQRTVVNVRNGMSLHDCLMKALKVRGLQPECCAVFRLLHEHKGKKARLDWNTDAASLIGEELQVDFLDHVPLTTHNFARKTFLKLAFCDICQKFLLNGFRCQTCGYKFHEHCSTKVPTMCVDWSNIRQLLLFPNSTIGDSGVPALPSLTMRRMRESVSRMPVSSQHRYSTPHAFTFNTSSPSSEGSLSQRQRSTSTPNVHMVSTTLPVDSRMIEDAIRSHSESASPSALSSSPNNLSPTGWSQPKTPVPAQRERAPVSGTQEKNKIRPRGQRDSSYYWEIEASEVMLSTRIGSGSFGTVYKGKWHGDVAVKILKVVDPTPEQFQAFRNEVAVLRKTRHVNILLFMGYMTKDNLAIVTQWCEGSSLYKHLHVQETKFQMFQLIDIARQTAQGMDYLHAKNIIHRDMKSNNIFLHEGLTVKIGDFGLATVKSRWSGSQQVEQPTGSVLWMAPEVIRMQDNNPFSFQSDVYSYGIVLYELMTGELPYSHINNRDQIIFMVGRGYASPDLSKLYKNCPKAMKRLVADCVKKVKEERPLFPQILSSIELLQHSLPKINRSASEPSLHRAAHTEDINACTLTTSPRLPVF
b-Raf (V600E), sequence (P15056 whole entry V600E): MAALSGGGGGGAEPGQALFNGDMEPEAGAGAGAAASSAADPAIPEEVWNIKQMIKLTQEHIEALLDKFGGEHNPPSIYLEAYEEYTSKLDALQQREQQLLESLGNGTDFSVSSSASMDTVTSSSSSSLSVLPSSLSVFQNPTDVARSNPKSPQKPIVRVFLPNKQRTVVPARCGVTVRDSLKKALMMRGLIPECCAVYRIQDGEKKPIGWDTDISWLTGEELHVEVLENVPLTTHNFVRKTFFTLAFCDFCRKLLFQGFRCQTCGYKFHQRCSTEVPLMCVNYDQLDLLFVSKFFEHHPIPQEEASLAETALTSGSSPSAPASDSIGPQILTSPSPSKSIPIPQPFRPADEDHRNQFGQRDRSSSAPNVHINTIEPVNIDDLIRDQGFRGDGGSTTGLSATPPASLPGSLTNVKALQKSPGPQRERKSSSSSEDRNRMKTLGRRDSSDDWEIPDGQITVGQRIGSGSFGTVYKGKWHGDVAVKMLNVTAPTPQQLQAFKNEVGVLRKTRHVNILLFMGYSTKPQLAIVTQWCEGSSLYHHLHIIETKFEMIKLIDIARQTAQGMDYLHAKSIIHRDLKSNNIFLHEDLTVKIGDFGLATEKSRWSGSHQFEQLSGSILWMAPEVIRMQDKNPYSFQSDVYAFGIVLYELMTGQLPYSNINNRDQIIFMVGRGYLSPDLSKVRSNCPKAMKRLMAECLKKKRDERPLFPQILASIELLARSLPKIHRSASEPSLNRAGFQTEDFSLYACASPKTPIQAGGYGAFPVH

SMILES: CNC(=O)c1ccc(O[C@H]2CC[C@H](NC(=O)NC34CC5CC(CC(C5)C3)C4)CC2)cc1 [Compound 2225, trans-4-[4-(3-adamantan-1-yl-ureido]-cyclohexyloxy)-N-methyl-benzamide]
- IC50 (human sEH): 0.0005 µM
- IC50 (Raf-1; 10 nM enzyme, 1 μM MEK1, 10 μM ATP, 22° C., 2 hours, read-out: Raf-1 IC50): > 10 µM
- EC50 (HepG2 hepatoma cell line; [6]): 6 µM
- EC50 (Huh-7 hepatoma cell line; [7]): 7 µM
- EC50 ([1]; MTT, 72 hours incubation): 4.5 µM
- EC50 ([2]; MTT, 72 hours incubation): 2 µM
- EC50 [3]: 4.5 µM
- EC50 [4, 8]: 7.5 µM

SMILES: CNC(=O)c1ccc(O[C@H]2CC[C@H](NC(=O)Nc3ccc(OC(F)(F)F)cc3)CC2)cc1 [Compound 2227, trans-N-Methyl-4-{4-[3-(4-trifluoromethoxy-phenyl)-ureido]-cyclohexyloxy}-benzamide]
- IC50 (Raf-1): 0.34 ± 0.04 µM
- IC50 (b-Raf (V600E)): > 10 µM
- EC50 (HepG2 hepatoma cell line; HepG2, 72 h): 7 µM
- EC50 (Huh-7 hepatoma cell line; Huh-7, 72 h): 5.5 µM
- EC50 ([1]; 72 h): 6.5 µM
- EC50 ([2]; 72 h): 10 µM
- EC50 [3]: > 25 µM
- EC50 ([4]; SK-BR-3, 72 h): > 25 µM

SMILES: CNC(=O)c1cc(O[C@H]2CC[C@H](NC(=O)Nc3ccc(Cl)c(C(F)(F)F)c3)CC2)ccn1 [Compound 2278, trans-4-{4-[3-(4-chloro-3-trifluoromethyl-phenyl)-ureido]-cyclohexyloxy}-pyridine-2-carboxylic acid methylamide]
- IC50 (human sEH): 0.0005 µM
- Effect on Hep G2 cell viability (dose dependence) (HepG2 hepatoma cell line; FIG. 2): more efficient than sunitinib
- Effect on Hep G2 cell viability (comparison of inhibitors) (HepG2 hepatoma cell line; FIG. 3, at a concentration 2-fold smaller): more efficient than sunitinib
- Effect on Hep G2 cell viability (dose dependence) (HepG2 hepatoma cell line; FIG. 4): more efficient than sunitinib
- EC50 (HepG2 hepatoma cell line; [6]): 7 µM
- EC50 (Huh-7 hepatoma cell line; [7]): 8 µM
- EC50 ([1]; MTT, 72 hours incubation): 7.5 µM
- EC50 ([2]; MTT, 72 hours incubation): 7 µM
- EC50 [3]: 5 µM
- EC50 [4, 8]: 8 µM
- AUC(0-t) [5]: 3 µM·h
- Cmax [5]: 190 nM
- Tmax [5]: 1.7 h
